The subject of the data set is cellulite in the thigh. Put plainly: Anticellulite activity, intradermal multiple injection in the thigh of female subjects. As to conditions: for Irritation reactions: during treatment; for Irritation reactions / Reduction of the fatty layer thickness / Reduction of the thigh diameter / Skin firmness / Skin hydration / Surface smoothness / Subjective improvement: 50.0 mg in 2.5 mL intradermally by multiple injection; for Irritation reactions / Reduction of the fatty layer thickness / Reduction of the thigh diameter / Skin firmness / Skin hydration / Surface smoothness / Subjective improvement / Clinical grading: once per week; for Reduction of the fatty layer thickness / Reduction of the thigh diameter / Skin firmness / Skin hydration / Surface smoothness: end of treatment (week 6) vs base line; for Subjective improvement / Clinical grading: end of treatment (week 6); for Clinical grading: visual grading of degree of cellulite, scale 0-4, 50.0 mg in 2.5 mL intradermally; for Anticellulite activity (overall, in words): comparison among propionyl L-carnitine, acetyl L-carnitine and L-carnitine. Format: in vivo, human. On the procedure:
The effectiveness of intradermally administration of the product according to the invention was tested for its ability to reduce the appearance of cellulite in the thigh. A total of 54 female subjects ranging in age from 23 to 58 years of age were selected to evaluate the composition of the invention.
The subjects were selected based on their cellulite intensity in the thigh area having a bi-lateral symmetry. Subjects with grades 1 and 2 cellulite were chosen, as a 5-point grading scale was used to rate the cellulite severity of each subject. The scale ranged from 0 to 4, being 0=No cellulite; 1=Small bumps or depressions; 2=Striations and bumps; 3=Pronounced lumpiness of the skin and striations; 4=All of the above plus hard sub-surface nodules.
All subjects had the absence of any visible skin disease(s) which might be confused with a skin reaction from the test material and were in general good health with no known allergies, especially to cosmetic or toiletry products; had no evidence of acute or chronic disease; were not pregnant or lactating; were not on any diet or weight reduction program; and were not on any regular exercise program (immediately prior to or during the course of the study).
At baseline each subject received a visual examination conducted by a qualified technician and scored for the degree of cellulite. In the same day subjects were treated on the right and left thigh intradermally by multiple injection, (from 5 to 10 injections per thigh using a “Lebel needle” 4 mm×0.4 mm; 27 G). The treatment was repeated once per week for […] (week 0; 1; 2; 3; 4; and 5).
The degree of cellulite was evaluated according to the following scale: 0=No visible cellulite; 1=Very little visible cellulite, no dimpling; 2=Visible cellulite, evidence of shallow dimpling; 3=Easily visible cellulite, moderate to pronounced dimpling; 4=Extremely visible cellulite, heavy and deep dimpling.
The patients were divided in 3 groups and treated intradermally by multiple injection with a composition comprising:
Group A • Propionyl L-Carnitine: 50.0 mg; • Mannitol: 100.0 mg; • Sodium phosphate bibasic bi-hydrate: 24.0 mg; • Trometamine: 8.0 mg; • H2O: 2.5 mL (final volume);
Group B • Acetyl L-Carnitine: 50.0 mg; • Mannitol: 100.0 mg; • Sodium phosphate bibasic bi-hydrate: 24.0 mg; • Trometamine: 8.0 mg; • H2O: 2.5 mL (final volume); or
Group C • L-Carnitine: 50.0 mg; • Mannitol: 100.0 mg; • Sodium phosphate bibasic bi-hydrate: 24.0 mg; • Trometamine: 8.0 mg; • H2O: 2.5 mL (final volume).
Subjects were instructed to discontinue the use of their normal anti-cellulite products to avoid introducing any new products for treating cellulite during the study, and to not be on any diet or weight reduction program or on any regular exercise program immediately prior to or during the course of the study. Each subject was also instructed to keep a diary to document compliance.
After 7 days from the last treatment (week 6) the subjects returned to the hospital for a final visual evaluation.
The cellulite evaluation was made according the method described in Cosmetics & Toiletries, 61-70, June 1995, by comparison of the values before and after the treatment.

Consider `CCC(=O)O[C@H](CC(=O)[O-])C[N+](C)(C)C` [Propionyl L-carnitine, Propionyl L-Carnitine], for which the Irritation reactions was found to be 0, the “Reduction of the fatty layer thickness” value is reported as −28%, the “Reduction of the thigh diameter” value is −11% and the Skin firmness entry is reported as “+20%”. Further, the Skin hydration result is listed as “+27%”, the Surface smoothness entry is listed as “+42%”, the Subjective improvement result was “+57%” and the Clinical grading result is given as “+34%”. Under “summary of Table 1”, the “Effect on skin infrastructure (dermis of the skin)” value was “improved skin infrastructure” and the “Anticellulite activity (overall, in words)” value (shortened to “Anticellulite activity”) is listed as “effectively ameliorate the cellulite condition”. Also, the “Anticellulite activity” value (summary of Table 1, listed as compound of the invention) is on record as “significantly higher respect to the activity of L-carnitine or acetyl L-carnitine”.

As for `CC(=O)O[C@H](CC(=O)[O-])C[N+](C)(C)C` [Acetyl L-carnitine, Acetyl L-Carnitine], the Irritation reactions came out at 0, the “Reduction of the fatty layer thickness” value is reported as −10%, the “Reduction of the thigh diameter” value was −2% and the Skin firmness entry is listed as “+6%”. Also, the Skin hydration result was “+8%”, the Surface smoothness entry is reported as “+15%”, the Subjective improvement result was “+15%” and the Clinical grading entry is recorded as “+8%”. For the same compound, the “Anticellulite activity” value (summary of Table 1) is on record as “inferior compared with that of propionyl L-carnitine”.

Consider `C[N+](C)(C)C[C@H](O)CC(=O)[O-]` [L-carnitine, L-Carnitine], for which the “Reduction of the fatty layer thickness” value is −12%, the “Reduction of the thigh diameter” value is given as −3%, the Skin firmness entry is recorded as “+9%” and the Skin hydration entry is recorded as “+10%”. The Surface smoothness result is given as “+18%”, the Subjective improvement result is given as “+19%” and the Clinical grading entry is “+12%”. Moreover, the “Anticellulite activity” value (summary of Table 1) is listed as “inferior compared with that of propionyl L-carnitine”.

Source of the values: patent publication US20140322149A1, “COMPOUND USEFUL FOR TREATING CELLULITE” (SIGMA-TAU INDUSTRIE FARMACEUTICHE RIUNITE S.P.A., priority 2008, published 2014).
